We go through eleven compounds from BindingDB's records for doi:10.1021/jm00079a004 (National Institute of Diabetes and Digestive and Kidney …, 1992).

The target of this assay is Sigma non-opioid intracellular receptor 1 (Cavia porcellus). Put plainly: Displacement of [3H]-(+) -3PPP from sigma receptor in guinea pig brain membranes.
For `CN(CCc1ccc(Cl)cc1)CCN1CCCC1`, the affinity, expressed as Ki, was 1.5 nM.
As for `CN(C)CCNCCc1ccc(Cl)c(Cl)c1`, the figure is 20 nM; as for `CCN(CCc1ccc(Cl)c(Cl)c1)CCN1CCCC1`, 0.51 nM.
Next, `CC(CN(C)CCc1ccc(Cl)c(Cl)c1)N(C)C` (stereo unspecified): 1.5 nM; `CN(CCN1CCCC1)Cc1ccc(Cl)c(Cl)c1`: 0.38 nM.
As for `CN(CCc1ccccc1)CCN1CCCC1`, the figure is 7.4 nM; as for `CNCCN(C)CCc1ccc(Cl)c(Cl)c1`, 5.8 nM.
In the case of `CN(CCc1ccc2ccccc2c1)CCN1CCCC1`, the affinity corresponds to a Ki of 2.1 nM.
As for `CN(CCCN1CCCC1)CCc1ccc(Cl)c(Cl)c1`, the figure is 1.8 nM.
As for `C=CCN(CCc1ccc(Cl)c(Cl)c1)CCN1CCCC1`, the figure is 1.4 nM.
Next, `CCN(CC)CCN(C)CCc1ccc(Cl)c(Cl)c1`: 0.73 nM.
